Source: patent US6867179B1, “Methods of inducing hair growth and coloration” (Trustees of Boston University, priority 1994, dated 2005)
“Also recorded” adds a separate entry of the source.

Legend:
p75 = p75 signal transduction in melanocytes (JNK activation, intracellular ceramide); type: cell-based, human
Experimental: To investigate p75 signal transduction, it was first determined by RT-PCR that trkA and trkC are not expressed in MC maintained in choleragen/TPA-free medium. MC were incubated with 10 ng/ml nerve growth factor (NGF) or neurotrophin-3 (NT-3) for 30 minutes and c-Jun amino terminal kinase (JNK) activation was determined. […] Furthermore, within 3 hours p75 activation by NGF, but not by NT-3, lead to a 2-fold increase of intracellular ceramide. As before, ceramide increase was abrogated by pre-incubation with the cyclic peptide. Because in cell lines, UV irradiation directly activates cell surface receptors such as Fas and the TNFα receptor, sham- or UV-irradiated MC were used to determine p75 activation.

MM4 cells = experiment: DNA fragmentation (DNA ladder) after UV irradiation, FIG. 3A; type: cell-based, human; conditions: 50 ng/ml NGF, 24 hours after UV irradiation
Experimental: Cells in 100 mm tissue culture dishes were washed with cold PBS and disrupted in lysis buffer pH8 (10 mM tris, 150 mM NaCl, 0.1 mM EDTA, 1% SDS, 200 µg/ml proteinase K). After 15 hour incubation at […], samples were extracted twice with phenol plus chloroform (1:1, V/V) and precipitated overnight with ethanol (2.5×volume) and 3 M sodium acetate (1/10×volume). The DNA was then digested with DNAse free ribonuclease ([…]) for one hour at […], separated on 1% agarose gel and stained with ethidium bromide. The size marker is 100 bp DNA ladder (STD) (Gibco/BRL, Gaithersburg, Md.).
Melanocytes or MM4 cells were plated as described in Example 1. After irradiation, melanocytes were maintained in basal melanocyte medium lacking FBS and hydrocortisone, with 50 ng/ml NGF or diluent alone (melanocyte medium). MM4 cells were maintained in DME supplemented with 50 ng/ml NGF or diluent alone.
The standard (STD) is 100 bp DNA ladder (Gibco/BRL). (See FIG. 3A).

p75^NTR = biological target: T1, p75^NTR (Homo sapiens, UniProt P08138); experiment: Competition for 125I beta-amyloid 1-40 binding to p75NTR-NIH 3T3 cells; design: expressed in transfected cells; host or cells: NIH 3T3 fibroblasts (p75^NTR NIH 3T3 cells, Dobrowsky et al. 1994)
T1 sequence (P08138 29-427): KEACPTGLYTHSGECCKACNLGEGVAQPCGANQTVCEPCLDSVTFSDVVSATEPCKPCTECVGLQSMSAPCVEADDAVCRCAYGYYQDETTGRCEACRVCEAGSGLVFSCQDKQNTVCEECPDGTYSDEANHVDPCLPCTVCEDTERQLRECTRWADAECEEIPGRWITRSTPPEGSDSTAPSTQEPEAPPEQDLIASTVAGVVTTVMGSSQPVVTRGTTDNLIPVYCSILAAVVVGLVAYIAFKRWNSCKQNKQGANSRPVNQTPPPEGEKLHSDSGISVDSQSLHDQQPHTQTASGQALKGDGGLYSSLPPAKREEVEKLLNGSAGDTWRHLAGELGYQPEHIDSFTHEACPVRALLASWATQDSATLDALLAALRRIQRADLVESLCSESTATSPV
Experimental: p75^NTR-NIH 3T3 cells were maintain in DMEM supplemented with 10% FBS in the presence of penicillin (45 ng/ml), streptomycin (68 ng/ml), and hygromycin B (17.5 ng/ml). […] After incubation, 1 mM of disuccinimidyl suberate was added for 30 minutes. Following centrifugation cells were lysed with RIPA buffer (50 mM Tris HCl, pH 8.0, […] NaCl 0.5% sodium deoxycholate 4, 5 mM MgCl2, 1% Triton x-100, 1 mM phenylmethylsulfonylfluoride [PMSF], and 1 microg/ml aprotinin), sonicated for 1-3 seconds and immunoprecipitated with anti p75^NTR antibodies (mouse monoclonal IgG1, Cedarlane Laboratories Ltd., Ontario, Canada) or mouse IgG as control for 16 hours at […] in the presence of 15 microl of protein G plus protein A agarose and 1M NaCl adjusted to pH 8.0. After several washes with 20 mM Tris HCl, pH 8.0, 1M NaCl, 5 mM MgCl2, 0.2% Triton X-100 and 1 mM PMSF, immunoprecipitates were separated over 8% PAGE and subjected to autoradiography. A band of 75-80 kD molecular weight was present only in lysates inmmunoprecipitated with anti p75^NTR antibodies and not lysates inmmunoprecipitated with irrelevant mouse IgG.
p75^NTR-NIH 3T3 cells were incubated for 2 hours at […] in binding medium (DMEM, 10 mM hepes, 0.1 mg/ml cytochrome C, 0.01% Tween 80, 1 mg/ml BSA) with ^125I beta-amyloid 1-40 and increasing concentrations of NGF (0-100 ng/ml). […]

p75 NGF-R = experiment: Northern blot of p75 NGF-R mRNA in NGF-supplemented melanocytes; type: cell-based, human
BCL-2 = BCL-2 antisense oligonucleotides in UV-irradiated MM4 cells with or without NGF; type: cell-based, human; conditions: UV 10 mJ/cm^2, NGF 50 ng/ml, 48 hours
Source text: Purified phosphorothioate oligonucleotides were purchased from Quality Controlled Biochemicals, Inc. (Hopkinton, Mass.). 19 mer oligonucleotides were designed based on the published human BCL-2 sequence (Tsujimoto, Y. and Croce, C. M., Proc. Natl. Acad. Sci. USA, 83:5214-5218 (1986)). The sequence chosen was directed against the […] of the coding region starting 4 bases before the methionine initiation site. Nonsense oligonucleotides were used as control. Sequences used (all written 5′ to 3′): Antisense CCCAGCGTGCGCCATCCTT (SEQ ID NO: 7); Nonsense CTCCCACTCGTCATTCGAC (SEQ ID NO: 8).
MM4 cells were maintained in 60 mm diameter tissue culture dishes in 55.3% DME, 27.6% L15, 15% FBS, 1% nonessential amino acids (GIBCO BRL), 2 mM glutamine and 10 µg/ml insulin. Near confluent cells were UV irradiated with 10 mJ/cm^2. Immediately after irradiation cells were incubated with 10 uM antisense or nonsense BCL-2 oligonucleotides in suspension at […] for 30 minutes. Then cells were plated in tissue culture dishes in the presence or absence of NGF (50 ng/ml). Cells were supplemented with fresh oligonucleotides every 12 hours. Cell yield and BCL-2 level were determined 48 hours after irradiation. Cell yield was determined by counting cells in at least three representative field per each condition.

## NGF: nerve growth factor, neurotrophin ligand of p75 NGF-R and trk
p75; 10 ng/ml, 30 minutes, MC without trkA and trkC
  JNK activation (phosphorylation of GST-c-Jun(1-79)): substantially induced phosphorylation of GST-c-Jun(1-79)
p75; within 3 hours
  Increase of intracellular ceramide: 2 fold
MM4 cells
  DNA fragmentation after UV irradiation: not fragmented; also recorded: far less fragmentation
p75^NTR
  Competition with beta-amyloid for p75NTR binding: could be competed off by NGF
p75^NTR; NGF 100 ng/ml, 2 hours
  Maximum inhibition of 125I beta-amyloid binding: 38%
p75 NGF-R
  p75 NGF-R mRNA transcript levels versus diluent controls: several-fold higher
BCL-2
  Cell yields, NGF plus nonsense oligonucleotides versus diluent plus nonsense: significantly higher
